In paper PMC9320886, “Daily Intraperitoneal Administration of Rosiglitazone Does Not Improve Lung Function or Alveolarization in Preterm Rabbits Exposed to Hyperoxia” (Pharmaceutics, 2022):
Like-named read-outs stand apart in the source and are kept apart here.

Assays:
[1] = plasma protein binding by equilibrium dialysis; format: in vitro ADME; parameters: fraction unbound at 4 h: dose or concentration left out as unconfirmed; conditions: both sexes, New Zealand White, preterm rabbit plasma (pooled), 37 °C
Protocol: In vitro plasma protein binding was determined in preterm rabbit plasma (New Zealand White Pooled Gender, BIOIVT, Hicksville, NY, USA) by equilibrium dialysis using Thermo Fisher Scientific Pierce RED rapid equilibrium dialysis devices (Device Inserts 8K MWCO, Thermo Fisher Scientific, Waltham, MA, USA). The assay was performed using a Tecan Evoware robotic system (Männedorf, Switzerland). Test compounds and the positive control were diluted in the pooled plasma (three donors) to a final concentration of […] and then dispensed into the red chamber of the RED device inserts. Phosphate-Buffered Saline (PBS, from Merck KGaA, Darmstadt, Germany) was dispensed into the other side. Upon completion of 4 h of incubation (37 °C under shaking), equal aliquots were removed from each chamber and matrix matched with even volumes of plasma or buffer for LC-MS/MS analyses.
Free and Bound percentages of the compounds were calculated as follows:(1) %Free=Area buffer sample/Area plasma sample×100 (2) % Bound=100−%Free

[2] = tested on: premature rabbits; parameters: method as in PMID 26375032; conditions: 3 mg/kg i.m. to the mothers 24 and 48 h prior to delivery; cited from earlier work
[3] = parameters: method as in PMID 20729387; conditions: newborn mice, mothers received two antenatal doses of 3 mg/kg 48 and 72 h prior to delivery; cited from earlier work
[4] = tested on: neonatal rats exposed to hyperoxia; parameters: method as in PMID 19304912; conditions: hyperoxia (95% O2), 1 or 3 mg/kg for 7 days; cited from earlier work
[5] = parameters: method as in PMID 16617452; conditions: newborn rats; cited from earlier work
[6] = tested on: preterm rabbits exposed to hyperoxia; test: pulmonary efficacy, daily intraperitoneal 10 mg/kg, preterm rabbits exposed to hyperoxia; format: in vivo, rabbit; conditions: daily i.p. 10 mg/kg
Protocol: At Day 7, invasive lung function testing was performed using the forced oscillation technique with the flexiVent^TM apparatus (SCIREQ, Montréal, Canada). Pups were anesthetized with intramuscular ketamine (35 mg/kg) and xylazine (6 mg/kg) before a tracheostomy was performed, and an 18-gauge metal needle was inserted in the trachea and tied. Pups were connected to the volume-controlled mechanical ventilation of the flexiVent^TM (SCIREQ, tidal volume 10 mL/kg, frequency of 120 breaths/min, PEEP of 3 cmH2O). All pups were euthanized with a pentothal sodium overdose.
The following parameters were measured: total inspiratory capacity, resistance of the respiratory system (Rrs), lung tissue damping (G), lung tissue elastance (H), and static compliance (Cst). Three consistent measurements were obtained, with a coefficient of determination >0.95 as the limit to accept the measurement. The average of three measurements was calculated and used in the analysis.
At necropsy, lungs were removed en bloc and a 20-gauge catheter was secured inside the trachea. Lungs were fixed with 10% buffered formalin (Sigma-Aldrich) for at least 4 h under constant pressure (25 cmH2O) using a custom-made fixation device to ensure homogenous fixation pressures. After removal from pressure fixation, the lungs were first left in formalin for at least 24 h and then transferred to 70% ethanol.
The left lung and the right lungs were embedded in paraffin, cut, and stained with hematoxylin and eosin (H&E) following standard histology protocols. The radial alveolar count (RAC) was performed by an expert pathologist blinded to the experimental design by drawing a perpendicular line from the lumen of the terminal bronchiole to the nearest connective tissue septum or pleural margin and the number of saccules or alveoli crossed by this line was counted as previously described. In total, 20 measurements were performed for each lung pair.
An independent experimental session investigated the efficacy of RGZ at a higher dose (10 mg/kg). In total, 36 preterm rabbits with a GA of 28 days delivered from 4 does were randomized to either the control group (n = 18) or the RGZ 10 mg/kg group (n = 18 per group). Hyperoxia exposure, RGZ administration, animal care and feeding procedures, lung function testing, RAC, and sample collection were performed as described above.

[7] = tested on: preterm rabbits exposed to hyperoxia; test: quantification of blood lipid levels; format: in vivo, rabbit
Protocol: Whole blood samples from pups in the RGZ (1 and 10 mg/kg groups) and control groups (n = 6 per group) were obtained though cardiac puncture. Briefly, a 22G needle was inserted into the left ventricle and approximately 1.5 mL of whole blood were collected in K2-EDTA tubes and stored on ice. Within 60 min after blood draw, samples were centrifuged at 1500× g for 15 min and the […] was immediately stored at −80 °C. At the day of quantification, samples were gently thawed overnight at 4 °C and the level of triglycerides (TG), total cholesterol, high-density cholesterol (HDL), and non-HDL were determined using a Cobas 8000 modular analyzer (Roche).

[8] = tested on: PPARγ; test: target engagement (TE%) evaluation from unbound plasma concentration and EC50
Protocol: In a subsequent experimental session, we investigated the pulmonary outcomes of a higher intraperitoneal RGZ dose. To define the RGZ dose, a target engagement (TE%) evaluation was performed based on the unbound plasma and EC50 values for RGZ previously determined in vitro. […] TE% at each time point was calculated according to the following formula.

[9] = pharmacokinetic profiling in preterm rabbits; format: in vivo, rabbit
[10] = parameters: method as in PMID 19484746; conditions: PND 13 mice, chow of nursing mice with 2.5–10 mg/kg of RGZ; cited from earlier work
[11] = tested on: premature rabbit pups with intraventricular hemorrhage; parameters: method as in PMID 34462350; conditions: twice-daily 0.1 mg/kg; cited from earlier work
[12] = Caco-2 permeability assay; format: in vitro ADME; conditions: human, basolateral to apical
[13] = daily 1 mg/kg, PND 7, vs vehicle, p < 0.01
[14] = rabbit, inhaled or intranasal, lung, intratracheal 1 mg/kg

SMILES: CN(CCOc1ccc(CC2SC(=O)NC2=O)cc1)c1ccccn1 (stereo not drawn) [RGZ, rosiglitazone]
- fraction unbound at 4 h [1]: 0.025
- hyperoxic lung injury at PND 7 [2]: attenuated
- plasma levels [3]: 350 ng/mL
- RAC and alveolar septal thickness [4]: significantly improved
- plasma levels reported to protect the lungs from hyperoxia [5]: 350 ng/mL
- plasma appearance [6]: white, dense appearance
- RAC ([6]; PND 7, vs vehicle): no difference between groups
- inspiratory capacity ([6]; PND 7, vs vehicle, p < 0.01): significantly lower
- lung compliance (Cst) ([6]; PND 7, vs vehicle, p < 0.01): significantly lower
- mortality ([6]; vs vehicle): similar
- serum non-HDL [7, 13]: significantly increased
- serum total cholesterol [7, 13]: significantly increased
- serum triglycerides ([7]; daily 1 mg/kg, PND 7, vs vehicle, p < 0.05): significantly increased
- serum lipids ([7]; daily 10 mg/kg, PND 7, p < 0.0001 for all lipids): aberrant modulation
- target engagement (TE%) [8]: 40–60%
- target engagement (TE%) ([8]; linear scaling model to intraperitoneal 10 mg/kg): > 90%
- target engagement (TE%) ([8]; listed as rosiglitazone): 50%
- detectability in plasma and lung ([9]; intratracheal or intraperitoneal 1 mg/kg): detectable levels in both compartments up to 24 h
- time of peak ([9]; plasma and lung tissue, irrespective of the administration method, 1 mg/kg): 0.25 h
- Cmax [9, 14]: 1070 ng/g
- Tmax [9, 14]: 15 min
- half-life ([9]; rabbit, inhaled or intranasal, plasma, intratracheal 1 mg/kg): 900 min
- Tmax ([9]; rabbit, ip, lung, intraperitoneal 1 mg/kg): 15 min
- AUC(0-t) ([9]; rabbit, ip, plasma, intraperitoneal 1 mg/kg): 29500 ng·h/mL
- Kp ([9]; rabbit, lung and plasma, inhaled or intranasal, intratracheal 1 mg/kg, read-out: AUCLung/AUCPlasma): 0.7
- concentration at 24 h ([9]; rabbit, plasma and lung, ip, 24 h after intraperitoneal administration, 1 mg/kg, read-out: levels in plasma and lung): > 500 ng/mL
- RGZ in the lung tissue [10]: 90.7 pg/g
- myelination and neurological recovery [11]: improved
- Papp B→A at 2 h, 10 µM ([12]; Caco-2, pH 7.4, with Elacridar (GF120918), concentration not given, with Elacridar, read-out: Papp with Pgp Inhibitor (B–A) (converted)): 11.4 ×10⁻⁶ cm/s
- Papp B→A at 2 h, 10 µM ([12]; Caco-2, pH 7.4, 2 h, without Pgp inhibitor, read-out: Papp (B–A) (converted)): 10 ×10⁻⁶ cm/s
